# Experiments:
# c-Src kinase domain [1] = molecular target: T1, c-Src kinase domain (Homo sapiens, UniProt P12931); assay: RP-HPLC assay to measure peptide phosphorylation kinetics; format: biochemical; conditions: purified peptide substrate
# FGFR1 kinase domain = assay: pTyr-Var library bacterial peptide display kinase screen (enrichment scores); format: biochemical, human
# MERTK kinase domain = assay: as above; format: biochemical, human
# [2] = test system: 4G10 Platinum pan-phosphotyrosine antibody; assay: Phosphorylated pTyr-Var library selection with biotinylated pan-phosphotyrosine antibody; format: binding, mouse; conditions: enrichment score, sheet SH2-vs-peptide
# EPHB2 kinase domain = assay: pTyr-Var library bacterial peptide display kinase screen (enrichment scores); format: biochemical, human
# FGFR3 kinase domain = assay: as above; format: biochemical, human
# EPHB1 kinase domain = assay: as above; format: biochemical, human;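 on screen: log2 fold change in enrichment of variant over reference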
# Fyn kinase domain = assay: as above; format: biochemical, human;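 on Fyn hit?: Hit requires p below 0.05 and at least twofold variant vs reference change plus filters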
# Fer kinase domain = assay: as above; format: biochemical, mouse;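 on Fer hit?: Hit requires p below 0.05 and at least twofold variant vs reference change plus filters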;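 on screen: log2 fold change in enrichment of variant over reference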
# Jak2 = assay: as above; format: biochemical, human
# c-Src kinase domain [3] = molecular target: T1, c-Src kinase domain; assay: as above; format: biochemical
# AncSZ kinase domain = assay: as above; format: biochemical;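 on AncSZ hit?: Hit requires p below 0.05 and at least twofold variant vs reference change plus filters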
# Fes = assay: as above; format: biochemical
# SHP2 C-SH2 domain = assay: pTyr-Var library SH2 domain screen with SH2-dynabeads (enrichment scores)
# Grb2 SH2 domain = assay: as above
# c-Abl kinase domain = molecular target: T2, c-Abl kinase domain (Mus musculus, UniProt P00520); assay: pTyr-Var library bacterial peptide display kinase screen (enrichment scores); format: biochemical;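 on screen: log2 fold change in enrichment of variant over reference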
# T2 sequence (P00520 242-493 limits assumed): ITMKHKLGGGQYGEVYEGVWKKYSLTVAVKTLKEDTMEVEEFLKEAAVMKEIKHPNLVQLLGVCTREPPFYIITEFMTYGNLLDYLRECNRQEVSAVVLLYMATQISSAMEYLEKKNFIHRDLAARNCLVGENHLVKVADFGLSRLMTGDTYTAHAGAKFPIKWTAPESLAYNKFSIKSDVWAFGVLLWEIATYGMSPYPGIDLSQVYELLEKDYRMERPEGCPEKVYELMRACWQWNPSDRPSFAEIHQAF
# c-Src SH2 domain = c-Src SH2 domain (Homo sapiens, UniProt P12931); assay: pTyr-Var library SH2 domain screen with SH2-dynabeads (enrichment scores); conditions: sheet c-Src
# Hck kinase domain = assay: pTyr-Var library bacterial peptide display kinase screen (enrichment scores); format: biochemical, human
# [4] = mean of log2(variant) minus mean of log2(reference)
# [5] = mean of log2 enrichment of variant peptide, n = 5
# [6] = pTyr-Var library, variant peptide enrichment, mean of n = 5
# [7] = mean of log2 enrichment of variant peptide, n = 4
# [8] = pTyr-Var library, variant peptide enrichment, mean of n = 4
# [9] = mean of log2 of enrichment over R1-R4
# [10] = pTyr-Var library, enrichment score, replicate 1
# [11] = pTyr-Var library, enrichment score, replicate 3
# [12] = pTyr-Var library, enrichment score, replicate 4
# [13] = variant versus reference peptide
# [14] = variant versus reference peptide, significant hit TRUE/FALSE
# 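Wherever c-Src hit? is given: Hit requires p below 0.05 and at least twofold variant vs reference change plus filters.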
substance,measurement,setting,value
Ac-VASSLYDILAR-NH2 [GLB1_Y294],Phosphorylation Rate,c-Src kinase domain [1],0.892 s⁻¹
LHVGFYESDVM [A2M_Y708_R704H],difference,FGFR1 kinase domain; [4],-0.559
same,mean of log2(variant),FGFR1 kinase domain; [5],-0.3446
same,var. mean,FGFR1 kinase domain; [6],0.8886
same,difference,MERTK kinase domain; [4],-1.201
same,mean of log2(variant),MERTK kinase domain; [7],0.1586
same,var. mean,MERTK kinase domain; [8],1.154
same,4G10 (mean),[2],1.221
same,difference,EPHB2 kinase domain; [4],0.5535
same,mean of log2(variant),EPHB2 kinase domain; [7],0.1669
same,var. mean,EPHB2 kinase domain; [8],1.142
same,difference,FGFR3 kinase domain; [4],-1.255
same,mean of log2(variant),FGFR3 kinase domain; [5],0.01497
same,var. mean,FGFR3 kinase domain; [6],1.21
same,difference,EPHB1 kinase domain; [4],-0.4797
same,mean of log2(variant),EPHB1 kinase domain; [7],0.4103
same,var. mean,EPHB1 kinase domain; [8],1.406
same,Screen,"EPHB1 kinase domain; sheet EPHB1, effect of the variant peptide relative to its reference peptide in the pTyr-Var library screen (enrichment scores)",-0.4797
same,Fyn mean of log2(enrichment),Fyn kinase domain; [9],-0.6247
same,Fyn enrich. R1,Fyn kinase domain; [10],1.119
same,Fyn enrich. R3,Fyn kinase domain; [11],0.683
same,Fyn enrich. R4,Fyn kinase domain; [12],0.4956
same,Fyn difference (mean log2 variant - mean log2 reference),Fyn kinase domain; [13],-0.4761
same,Fyn hit?,Fyn kinase domain; [14],FALSE
same,Fer mean of log2(enrichment),Fer kinase domain; [9],0.8907
same,Fer enrich. R1,Fer kinase domain; [10],2.223
same,Fer enrich. R3,Fer kinase domain; [11],2.063
same,Fer enrich. R4,Fer kinase domain; [12],1.22
same,Screen,"Fer kinase domain; sheet ""Fer"", value of the variant peptide against its reference peptide in the pTyr-Var library screen with Fer",0.2498
same,Fer difference (mean log2 variant - mean log2 reference),Fer kinase domain; [13],0.2498
same,Fer hit?,Fer kinase domain; [14],FALSE
same,Jak2 mean of log2(enrichment),Jak2; mean of log2 of enrichment over R1-R3,0.3892
same,Jak2 enrich. R1,Jak2; [10],1.336
same,Jak2 enrich. R3,Jak2; [11],1.016
same,Jak2 difference (mean log2 variant - mean log2 reference),Jak2; [13],-0.5933
same,Jak2 hit?,Jak2; [14],FALSE
same,c-Src mean of log2(enrichment),c-Src kinase domain [3]; [9],-0.6428
same,c-Src enrich. R1,c-Src kinase domain [3]; [10],0.8102
same,c-Src enrich. R3,c-Src kinase domain [3]; [11],0.4328
same,c-Src enrich. R4,c-Src kinase domain [3]; [12],0.9633
same,c-Src difference (mean log2 variant - mean log2 reference),c-Src kinase domain [3]; [13],-1.034
same,c-Src hit?,c-Src kinase domain [3]; [14],FALSE
same,AncSZ mean of log2(enrichment),AncSZ kinase domain; mean of log2 of enrichment over R1-R5,0.1983
same,AncSZ enrich. R1,AncSZ kinase domain; [10],0.795
same,AncSZ enrich. R3,AncSZ kinase domain; [11],1.048
same,AncSZ enrich. R4,AncSZ kinase domain; [12],1.095
same,AncSZ enrich. R5,"AncSZ kinase domain; pTyr-Var library, enrichment score, replicate 5",1.306
same,AncSZ difference (mean log2 variant - mean log2 reference),AncSZ kinase domain; [13],-1.317
same,AncSZ hit?,AncSZ kinase domain; [14],FALSE
same,Fes mean of log2(enrichment),Fes; mean of log2 of enrichment over R1-R6,0.6236
same,Fes difference (mean log2 variant - mean log2 reference),Fes; [13],-0.8632
same,difference,"SHP2 C-SH2 domain; SHP2-C SH2, mean of log2(variant) minus mean of log2(reference)",-0.5777
same,mean of log2(variant),"SHP2 C-SH2 domain; SHP2-C SH2, mean of log2 enrichment of variant, R1-R3",-0.5659
same,hit?,"SHP2 C-SH2 domain; SHP2-C SH2, variant versus reference significant hit call",FALSE
same,var. mean,"SHP2 C-SH2 domain; variant peptide enrichment score, SHP2-C SH2, mean of R1-R3",0.7213
same,difference,"Grb2 SH2 domain; Grb2 SH2, mean of log2(variant) minus mean of log2(reference)",0.0213
same,mean of log2(variant),"Grb2 SH2 domain; Grb2 SH2, mean of log2 enrichment of variant, R1-R3",-0.08185
same,hit?,"Grb2 SH2 domain; Grb2 SH2, variant versus reference significant hit call",FALSE
same,var. mean,"Grb2 SH2 domain; variant peptide enrichment score, Grb2 SH2, mean of R1-R3",0.9505
same,Screen,"c-Abl kinase domain; fig5-data2, sheet ""Abl"", Screen for the variant/reference peptide pair, pTyr-Var library",-1.318
same,c-Abl mean of log2(enrichment),c-Abl kinase domain; [9],-0.4279
same,c-Abl enrich. R1,c-Abl kinase domain; [10],0.51
same,c-Abl enrich. R3,c-Abl kinase domain; [11],0.9195
same,c-Abl enrich. R4,c-Abl kinase domain; [12],0.7727
same,c-Abl hit?,c-Abl kinase domain; [14],FALSE
same,difference,c-Src SH2 domain; [4],0.05278
same,mean of log2(variant),"c-Src SH2 domain; mean of log2 enrichment of variant peptide, R1-R3",2.054
same,var. mean,"c-Src SH2 domain; variant peptide, mean of R1-R3",4.231
same,Hck enrich. R1,Hck kinase domain; [10],0.9181
same,Hck enrich. R3,Hck kinase domain; [11],0.8034
same,Hck enrich. R4,Hck kinase domain; [12],0.2649
same,Hck hit?,Hck kinase domain; [14],FALSE
